The record followed here is the pKa sets of Baltruschat and Czodrowski (2020).

As for `CC[n+]1ccc([O-])nc1[S-]`, the pKa (basic group) was 8.7.

Turning to `Cc1cc(Cc2cc(C)c(O)c(C)c2)c(O)c([N+](=O)[O-])c1`, where the note is “acidic group”, the pKa stood at 7.98. In turn, `CN(C)CCN(C)CC[NH+](C)C` yielded a pKa (basic group) of 8.63. In turn, `O=C1Oc2ccccc2C(=O)C1CC1C(=O)Oc2ccccc2C1=O` (stereo unspecified) showed a pKa (acidic group) of 5.5. `N#CC(C#N)C(c1ccccc1)C(C#N)C#N` came in with a pKa (acidic group) of 6.19.

Molecule `CCC1(c2ccccc2)C(=O)NC(=S)N(C)C1=O` (stereo unspecified) yielded a pKa (acidic group) of 7.65. As for `O=[PH]([O-])C([NH2+]Cc1cccnc1)c1ccccc1O` (stereo unspecified), the pKa (basic group) was found to be 3.25.

`CNCc1ccc(C)cc1` returned a pKa (basic group) of 9.93.

`Cc1ccc2c(c1)cc(C)n2C` came in with a pKa (basic group) of 0.5. Under “acidic group”, `CC(C)(C)OC(=O)NS(=O)(=O)c1ccc(S(C)(=O)=O)cc1` registered a pKa of 3.76. On to `CCNc1ccccc1C`, for which, where the note is “basic group”, the pKa was 4.92.

On to `CCN(CC)C(C)C=C(c1cccs1)c1cccs1` (stereo unspecified), for which the pKa (basic group) is 8.9. `c1cnc2c(c1)ccc1ncccc12`: where the note is “basic group”, the pKa came out at 4. For the molecule `CC1=CSC2=NCCCN12`, the pKa (basic group) stood at 10.3. `NC(Cc1c[nH]c2ccccc12)C(=O)[O-]` (stereo unspecified): the pKa (basic group) worked out at 9.44. On the same count and under the same terms, under `Oc1ccccc1CN1CCCCC1` stands 8.6.

Turning to `[NH3+]Cc1nnn[nH]1`, the pKa (acidic group) was found to be 2.62.

Consider `C=CCNCC=C`, for which the pKa (basic group) came to 9.35. Regarding `O=[N+]([O-])c1cc2cc(O)ccc2cc1Cl`, the pKa (acidic group) was determined as 8.56.

In turn, `Cc1[nH]cnc1CSCCNC(=N)NCCCc1c[nH]cn1` registered a pKa (basic group) of 11.6. For the setting “acidic group”, `O=C(O)CC[C@H]1CC[C@H](O)CC1` registered a pKa of 4.86.

The molecule `CC(C)(C)C#CC(=O)O` returned a pKa (acidic group) of 2.66.

Consider `CCNC(C)C(=O)[O-]` (stereo unspecified), for which the pKa (basic group) was determined as 10.2.

Turning to `CCO[C@H]1C[C@H]1C(=O)O`, the pKa (acidic group) came out at 4.83. `CC#CC#CC(=O)O`: the pKa (acidic group) was 1.94.

Molecule `COc1cc(CO)ccc1O` came in with a pKa (acidic group) of 9.79.

Consider `NCCC=C(Cl)Cl`, for which the pKa (basic group) amounted to 9.85. On the same count and under the same terms, under `C[Si](C)(C)CNC1CCCCC1` stands 11. In the case of `N[C@@H](Cc1c[nH]c2ccccc12)C(=O)[O-]`, the pKa (basic group) turned out to be 9.31. `Cc1ccc(O)c([O-])c1`: the pKa (acidic group) was 13.3. In the case of `Cn1c(-c2ccccn2)nc2ccccc21`, the pKa (basic group) was determined as 4.47. With `COC(=O)c1ncccn1`, the pKa (basic group) is -0.68.

Molecule `O=C1CSC(=S)N1` registered a pKa (acidic group) of 6.48.

`COc1c(Cl)cc(Cl)c([O-])c1C(=O)NC1CCN(C)CC1`: the pKa (basic group) is 9.12.

For the molecule `NCC(=O)Nc1ccccc1`, the pKa (basic group) worked out at 8.12.

Molecule `CN(C)c1ccccc1C(=O)[O-]` had a pKa (basic group) of 8.46.

Turning to `O=[N+]([O-])c1cc(Br)ccc1O`, the pKa (acidic group) came to 6.36. On to `Cn1c(=O)c2c([O-])cnnc2n(C)c1=O`, for which the pKa (basic group) came to 8.51. With `Cc1cc([S-])[nH+]c([S-])n1`, the pKa (basic group) turned out to be 6.87.

`OCO` gave a pKa (acidic group) of 12.8. Turning to `C[C@@H]1CCCC[C@@H]1N`, the pKa (basic group) was found to be 10.6. `OCCNC(=S)S` displayed a pKa (acidic group) of 2.82. Take `CCCCNCC(=O)[O-]`: the pKa (basic group) was 10.2. With `CC(=O)Nc1nnn[nH]1`, the pKa (acidic group) is 4.53. Molecule `O=C1/C(=N\O)C=C(S(=O)(=O)[O-])c2cn[nH]c21` yielded a pKa (acidic group) of 6.35.

Regarding `CCc1ccc(C(=O)/C=C/C(=O)O)cc1`, the pKa (acidic group) was determined as 3.38. `CC(C)N/C=N/c1ccc(-c2c[nH]cn2)cc1` had a pKa (basic group) of 8.88. Consider `Cc1nc(N)c2ncsc2n1`, for which the pKa (basic group) worked out at 4.56.

For the molecule `CC1=C[C@H]2CC[C@@H](O)[C@H]2N1C`, the pKa (basic group) turned out to be 11.7. For `O/N=C1\CCCC\C1=N/O`, the pKa (acidic group) was 10.5. Turning to `Cc1cc2cccc(O)c2nc1C`, the pKa (acidic group) is 10.2 and the pKa (basic group) was 5.86. Turning to `Oc1ccccc1CN1CCOCC1`, the pKa is, setting by setting: (acidic group) 10.3; (basic group) 7.71.

Consider `CC(=O)N[C@H]1CC(=O)NC1=O`, for which, under “acidic group”, the pKa amounted to 8.85. Where the note is “basic group”, `Cc1nc[nH]c1C` showed a pKa of 8.19. For the molecule `O/N=C/c1ccc2c(c1)OCO2`, the pKa (acidic group) worked out at 10.8. `[O-]c1ccc([O-])nn1` had a pKa (basic group) of 13. Consider `CCOC(=O)c1n[nH]c2c(c1=O)c(=O)n(C)c(=O)n2C`, for which the pKa (acidic group) stood at 7.32.

`CCCc1c(-c2ccccc2)n[nH]c1O` registered a pKa (acidic group) of 8.

As to `C[NH2+]C(C)(C)C(=O)O`, the pKa (acidic group) amounted to 2.2. In turn, `C=C(C)C(=O)OCCNC` had a pKa (basic group) of 8.96. As for `Cc1cc(C(=O)O)ccc1Br`, the pKa (acidic group) worked out at 4.03. As for `C[C@@H]1CCN2CC=C[C@H]12`, the pKa (basic group) was found to be 10.6. `Nc1ccncc1F` showed a pKa (basic group) of 4.77.

In turn, `Brc1ccc(C2NCCS2)cc1` (stereo unspecified) had a pKa (basic group) of 5.05.

For the setting “acidic group”, `N#CC(CCCCC(=O)O)c1ccccc1` (stereo unspecified) came in with a pKa of 4.75.

`c1ncc2[nH]cnc2n1`: the pKa reads like this: (acidic group) 8.92; (basic group) 2.45.

`O=c1cc(CO)occ1O` gave a pKa (acidic group) of 7.82.

Regarding `CC1CCCC(C)(C)N1C` (stereo unspecified), where the note is “basic group”, the pKa worked out at 10.8. `OB(O)c1cccc(O)c1` showed a pKa (acidic group) of 8.55. Under “acidic group”, `O=c1[nH]c2ccccc2c(=O)o1` displayed a pKa of 8.25. With `CN(C)c1ccc(/C=C/c2ccncc2)cc1`, the pKa (basic group) was 6.25. Turning to `CCS(=O)(=O)c1cc(OC)c(OC)c(C(=O)N[C@@H]2C[C@H]3CC[C@@H](C2)N3Cc2ccccc2)c1`, under “basic group”, the pKa was determined as 8.9. `CN(O)C(=O)C(C)(C)C` had a pKa (acidic group) of 9.94. `O/N=C\c1ccccc1` registered a pKa (acidic group) of 11.3. As for `O=Cc1ccncc1`, the pKa (basic group) was determined as 4.63. Same read-out and setting: the value for `CC([Se-])CN` (stereo unspecified) was 10.8. Regarding `CCOc1ccc(C(=O)O)c(C)c1`, the pKa (acidic group) worked out at 4.54. As to `Clc1cc(-c2ccccc2)nnc1NCCN1CCOCC1`, the pKa (basic group) turned out to be 6.64. `CN(CCC[NH+](C)C)CCC[NH+](C)C` showed a pKa (basic group) of 6.4.

Consider `c1cnc2c(c1)ccc1[nH+]cccc12`, for which, for the setting “basic group”, the pKa turned out to be 1.

For the molecule `N[C@H]1CONC1=O`, the pKa (basic group) was found to be 7.53. Turning to `CN(C)Cc1cc(C[NH+](C)C)cc(O)c1O`, the pKa (basic group) stood at 7.22. For the molecule `COc1cccc(S)c1`, the pKa (acidic group) worked out at 6.39.

As for `CC1(C)NC(=S)NC1=O`, the pKa (acidic group) is 8.71. Consider `CCOC(=O)C(N)CC` (stereo unspecified), for which the pKa (basic group) was 7.71.

In turn, `C=C(C)/C=C(\C)O` gave a pKa (acidic group) of 10.4.

For the molecule `NCCCCC(=O)[O-]`, the pKa (basic group) worked out at 10.8. Under “basic group”, `C(=C\c1nnnn1-c1ccccc1)/c1ccccc1` returned a pKa of -2.3. Molecule `CCN(CC)CCN=C(c1ccccc1C)c1ccccc1C` yielded a pKa (basic group) of 8.8. In turn, `CNC(=S)c1ccccc1` had a pKa (basic group) of -2.5.

On to `C[NH2+]CCN(C)CC[NH2+]C`, for which the pKa (basic group) was 3.13. Same read-out and setting: the value for `CNCC(=O)NCCc1c[nH]cn1` was 8.31. `O=C([O-])[C@@H]1CC[C@H](C(=O)O)C1` displayed a pKa (acidic group) of 5.52.

`OCCn1cnc2ccccc21`: for the setting “basic group”, the pKa came out at 5.29. Turning to `[S-]c1ncc2nccnc2n1`, for the setting “basic group”, the pKa was 6.52. As for `O=C(O)CCc1nnnn1-c1ccccc1`, the pKa (acidic group) was 5. Still for that read-out and setting: under `CC(=O)NS(=O)(=O)c1ccc(C)cc1` stands 4.8; under `CC(=O)NO`, 9.07; under `CCN(CC)c1nnn[nH]1`, 6.33.

Regarding `CC(C)=CCC(=O)O`, under “acidic group”, the pKa amounted to 4.6.

On to `Cc1ccc(C2CCC[NH+]2C)cn1` (stereo unspecified), for which the pKa (basic group) was found to be 3.78. `CCN(CC)c1ccc(C)cc1`: for the setting “basic group”, the pKa amounted to 7.18. The molecule `C[C@@H]1C[C@@H]1C(=O)O` gave a pKa (acidic group) of 5.03. For the molecule `Sc1cccnc1`, the pKa (acidic group) turned out to be 7.01 and the pKa (basic group) came out at 2.28. For `Sc1ccc(Cl)c(Cl)c1`, the pKa (acidic group) is 5.48. In the case of `COCc1nc(C)c[nH]1`, where the note is “basic group”, the pKa was found to be 7.03. Consider `[NH3+]CCC(=O)N[C@@H](Cc1c[nH]cn1)C(=O)[O-]`, for which the pKa (basic group) came out at 6.89.

`Cc1cc(C)nc([N-]S(=O)(=O)c2ccc(O)cc2)n1` had a pKa (acidic group) of 9.16. Consider `CCCCc1nc(N)c2ncsc2n1`, for which the pKa (basic group) was determined as 3.49. Where the note is “basic group”, `N#CC1=CN2CCC1CC2` returned a pKa of 5.84. As for `O=C1NC(=O)c2cc([N+](=O)[O-])ccc21`, the pKa (acidic group) was determined as 8.68. `CN(C)c1ccc(N2CCOCC2)cc1`: the pKa (basic group) turned out to be 5.7. Consider `CN(C)c1nc2c(s1)CCCC2`, for which the pKa (basic group) amounted to 6.16. `O=C(c1ccc(Cl)cc1)c1cc[nH]n1`: where the note is “acidic group”, the pKa was found to be 11.9. In turn, `CCc1cc(C(=O)O)cs1` returned a pKa (acidic group) of 4.19. With `Oc1c(Br)cccc1Br`, the pKa (acidic group) was determined as 6.6.

Turning to `OC(O)c1ccncc1`, the pKa (acidic group) is 12.2. For `O=C(O)[C@@]1(Cl)[C@@H]2CCC[C@@H]21`, the pKa (acidic group) is 3.03. `[O-]C(O)=C1c2ccccc2-c2ccccc21` showed a pKa (acidic group) of 9.61. Where the note is “acidic group”, `CC1CCn2nnnc2C(C(=O)O)C1` (stereo unspecified) came in with a pKa of 3.2. In the case of `Cc1ccc(NN=C(C#N)C#N)c([N+](=O)[O-])c1`, the pKa is 6 (acidic group) and -0.78 (basic group). For the molecule `O=Cc1ccc2ccccc2n1`, the pKa (basic group) was determined as 3.1. On the same count and under the same terms, under `CN(C)CC(CSCc1ccccc1)SCc1ccccc1` (stereo unspecified) stands 7.3; under `C[n+]1c(NN)ccc2ccccc21`, 2.66; under `C=C(C(=O)O[C@H]1C[C@@H]2[C@@H]3O[C@@H]3[C@H](C1)N2C)c1ccccc1`, 7.72. For the molecule `CCNC(=O)/C=C(/[70SH])c1ccccc1`, under “acidic group”, the pKa is 4.73. For the setting “basic group”, `Nc1ncnc2c1cnn2-c1ccccc1` gave a pKa of 3.89. In turn, `O=c1ccc(O)ccc1[O-]` had a pKa (acidic group) of 10.1. The molecule `Cc1cc(C2(c3ccc(O)c(C)c3)OS(=O)(=O)c3c(Br)c(Br)c(Br)c(Br)c32)ccc1O` gave a pKa (acidic group) of 7.53.

`Cn1cnc2nc([O-])[nH]c(=S)c21` gave a pKa (acidic group) of 12.1. Where the note is “basic group”, `CCOc1cccc(/N=C/N(C)C)c1` yielded a pKa of 8.87. For the setting “acidic group”, `Cc1nc(-c2ccccc2[S-])[nH]c1C` yielded a pKa of 9.

Turning to `COc1cccc(C=O)c1O`, under “acidic group”, the pKa was determined as 7.91. On the same count and under the same terms, under `O=Cc1cccnc1C(=O)O` stands 3.7; under `Cc1cc(C)c(C(C(=O)O)c2ccccc2)c(C)c1` (stereo unspecified), 4. `COc1cccc(CN2CC(O[Si](C)(C)C)C2)c1` returned a pKa (basic group) of 7.81.

Where the note is “basic group”, `C#CCCCN` displayed a pKa of 10.2. For the molecule `O=C(O)CNC(=O)c1ccccc1O`, the pKa (acidic group) stood at 3.63. In the case of `CC(O)CNC(C)(C)C` (stereo unspecified), for the setting “basic group”, the pKa was 10. The molecule `c1cc([C@@H]2CCCN2)nc([C@@H]2CCCN2)c1` displayed a pKa (basic group) of 10.1.

Turning to `Oc1ccc[nH+]c1`, the pKa (acidic group) was determined as 5.01.

By pKa is commonly meant the pH at which an ionisable group is half protonated.
